From patent US6262064A, “Octahydrobenzo[f]quinoline-based receptor agonists and antagonists” (priority 1999, dated 2001)
Entries after “also recorded” stand apart in the source; their conditions may differ. Read-outs that look alike come from different tables or passages of the source.

Assays:
D1 dopamine receptor = molecular target: T1, D1 dopamine receptor (Rattus norvegicus, UniProt P18901); test: Dopamine D1 binding assay ([3H]SCH 23390); conditions: Table III; rat striatal membranes; read-out: D1 receptor binding affinity Ki
T1 construct: rat striatal membranes; from tissue; host or cells: rat striatum membranes
T1 sequence (P18901 whole entry): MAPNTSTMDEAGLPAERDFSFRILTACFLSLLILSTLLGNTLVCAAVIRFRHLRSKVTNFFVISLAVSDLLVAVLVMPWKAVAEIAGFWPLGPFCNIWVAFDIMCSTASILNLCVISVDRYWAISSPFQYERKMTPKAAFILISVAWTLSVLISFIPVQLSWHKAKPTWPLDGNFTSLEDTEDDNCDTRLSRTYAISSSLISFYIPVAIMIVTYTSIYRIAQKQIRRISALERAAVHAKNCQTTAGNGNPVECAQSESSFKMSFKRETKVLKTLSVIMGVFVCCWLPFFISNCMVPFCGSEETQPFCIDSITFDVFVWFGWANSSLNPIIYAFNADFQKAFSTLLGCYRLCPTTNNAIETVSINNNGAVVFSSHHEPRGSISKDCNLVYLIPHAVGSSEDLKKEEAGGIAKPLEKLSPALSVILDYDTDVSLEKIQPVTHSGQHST
Procedure: The final radioligand concentration was 0.5 nM.

D2 dopamine receptor = molecular target: T2, D2 dopamine receptor (Rattus norvegicus, UniProt P61169); test: Dopamine D2 binding assay ([3H]Sulpiride)
T2 construct: rat striatal membranes; from tissue; host or cells: rat striatum membranes
T2 sequence (P61169 whole entry): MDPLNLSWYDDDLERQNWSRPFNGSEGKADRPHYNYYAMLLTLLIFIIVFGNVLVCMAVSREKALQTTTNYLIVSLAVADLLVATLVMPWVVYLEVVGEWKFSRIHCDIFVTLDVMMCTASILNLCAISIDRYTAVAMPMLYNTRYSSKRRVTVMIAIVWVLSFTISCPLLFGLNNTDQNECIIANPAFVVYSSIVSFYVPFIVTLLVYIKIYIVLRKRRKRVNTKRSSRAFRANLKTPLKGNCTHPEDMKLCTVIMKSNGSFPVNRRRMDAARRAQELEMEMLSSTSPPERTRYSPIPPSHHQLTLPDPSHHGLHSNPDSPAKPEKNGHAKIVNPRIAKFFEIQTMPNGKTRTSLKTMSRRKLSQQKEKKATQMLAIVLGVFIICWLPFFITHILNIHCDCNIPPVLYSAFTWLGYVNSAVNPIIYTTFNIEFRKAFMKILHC
Procedure: The final ligand concentration was 0.5 nM.

[1] = molecular target: alpha2-adrenergic receptor; test: Alpha2-adrenergic (non-selective) binding assay ([3H]RX 781094); parameters: species or system rat
[2] = test system: non-habituated male Swiss-Webster mice; test: Locomotor dose-effect test; format: in vivo
Procedure: Compounds of this invention were tested to evaluate any depressant effect upon locomotor activity on non-habituated and cocaine-influenced mice. Locomotor activity was measured in photocell cages. A panel of infrared beams was located in the horizontal direction along all 4 sides of each activity cage. Horizontal photocell beam interruptions were recorded by a computer in 10 minute intervals.
Non-habituated male Swiss-Webster served as subjects in this experiment. The mice were injected via the intraperitoneal (IP) route with a methycellulose vehicle or a test compound, comprising trans-9 or cis-9, and placed singly in cages for 20 minutes. After this 20 minute period, mice were injected with saline IP, placed in individual photocell cages and testing for effects upon locomotor activity was begun. Eight mice were tested at each dose level. Experimental sessions were 60 minutes in duration with horizontal locomotor activity recorded in 10 minute intervals. Within each 10 minute interval, the data from all subjects are averaged.
The results of these tests were provided in FIGS. 1a, 1b, 2a and 2b, as well as in Table XI. […] Data were analyzed by a one-way ANOVA computed across doses using a long10 transformation of the horizontal activity counts. Comparisons between vehicle and each dose of the compounds tested were made by a priori contrasts. Doses of the compounds tested, which produced a statistically significant (p<0.05) decrease in locomotor activity relative to vehicle control, are denoted with an asterisk. […] The horizontal activity counts were regressed against the log10 dose of the test compound.

[3] = test system: male Sprague-Dawley albino rats; test: Stereotypy evaluation for dopaminergic activity; format: in vivo; conditions: IP
Procedure: Young, adult, male Sprague-Dawley (Charles River) albino rats (200-250 g) served as subjects in this experiment. The rats were injected IP with each dose of (±)-trans-9 or (±)-cis-9. Six rats were tested at each dose. Experimental sessions were 60 minutes in duration. The tests were performed and rated in accordance with the method described in Campbell et al., Psychopharmacology, 88:158 (1986). Each rat was rated with a score of 0 to 3, where 0 represents no sterotypy.

D3 (human) receptor = molecular target: T3, D3 (human) receptor (Homo sapiens, UniProt P35462); test: D2:D3:D4 competition binding assay, D3 ([3H]-spiperone); conditions: in words, Example 26
T3 construct: expressed in transfected cells
T3 sequence (P35462 whole entry): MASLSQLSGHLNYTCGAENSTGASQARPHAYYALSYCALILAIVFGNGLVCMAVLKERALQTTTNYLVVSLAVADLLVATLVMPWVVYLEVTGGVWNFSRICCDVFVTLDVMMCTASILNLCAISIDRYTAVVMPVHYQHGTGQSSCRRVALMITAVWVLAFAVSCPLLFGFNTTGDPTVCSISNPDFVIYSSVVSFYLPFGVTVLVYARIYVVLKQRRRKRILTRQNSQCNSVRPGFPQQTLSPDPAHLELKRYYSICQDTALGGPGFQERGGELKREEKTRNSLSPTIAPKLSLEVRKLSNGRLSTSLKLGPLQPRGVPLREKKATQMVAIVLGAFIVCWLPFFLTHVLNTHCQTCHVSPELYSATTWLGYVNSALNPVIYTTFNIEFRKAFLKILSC
Procedure: (§1) To determine the D2, D3 or D4 receptor selectivity, competition binding assays were performed using membranes from fibroblast cell lines transfected with D2444 (rat), D3 (human) or D4 (rat) receptors. All cell lines were maintained in Dulbecco's modified Eagle's media (DMEM) supplemented with 10 % fetal bovine serum at 37° C. with 5% CO2. Transfected cells were maintained in DMEM containing 300 μg/mL of the antibiotic G418 (Gibco).
Nuclei were removed by centrifugation for five minutes at 600 g at 4° C., membranes were pelleted for 25 minutes at 50,000 g. Membrane protein was resuspended in homogenization buffer (0.32M sucrose, 0.0025M Tris, pH 6.9 at 20° C.) and incubated at 37° C. for 15 minutes. Membrane protein was pelleted, resuspended in water and stored at -70° C.
The compositions were tested in varying concentrations between 1 nM and 100 μM. Non-specific binding was determined using 1 μM eticlopride.
After addition of all components, the samples were incubated for 15 minutes at 37° C., terminated with 50 mM Tris-HCl (pH 7.4 at 4° C.) and collected on glass-fiber filters on a Brandel cell harvester. […] Each composition was evaluated in duplicate experiments.

D2 receptor [4] = molecular target: T4, D2 receptor (Sus scrofa, UniProt F1SM69); test: D2:D4 comparative binding assay, D2 (pig anterior pituitary)
T4 construct: pig anterior pituitary tissue; from tissue; host or cells: pig anterior pituitary
T4 sequence (F1SM69 1-443): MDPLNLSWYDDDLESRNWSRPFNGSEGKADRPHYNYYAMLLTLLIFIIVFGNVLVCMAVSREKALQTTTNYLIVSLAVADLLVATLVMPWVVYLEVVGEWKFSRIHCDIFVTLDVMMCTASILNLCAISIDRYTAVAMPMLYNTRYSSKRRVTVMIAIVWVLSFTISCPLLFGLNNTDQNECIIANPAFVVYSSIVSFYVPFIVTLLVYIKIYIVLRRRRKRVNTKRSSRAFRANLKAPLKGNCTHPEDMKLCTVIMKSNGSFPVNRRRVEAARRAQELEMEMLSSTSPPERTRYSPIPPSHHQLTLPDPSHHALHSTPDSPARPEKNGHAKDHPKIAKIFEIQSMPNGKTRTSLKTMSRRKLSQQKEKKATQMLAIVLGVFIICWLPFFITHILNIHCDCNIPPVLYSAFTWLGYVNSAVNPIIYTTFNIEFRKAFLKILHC
Procedure: (§2) To evaluate D2 versus D4 receptor selectivity, comparative binding assays were performed to compare the binding affinities of compositions of this invention for cloned D2 and D4 receptors.
(§3) The D2 assay was prepared from pig anterior pituitary tissue as described in Seeman et al., Molecular Pharmacology, 28:391 (1985). The D4 assay contained membranes prepared from COS-7 cells transfected with a 3.9 kb cDNA-gene fusion construct as described in H. H. M. Vantol, Nature, 350:610 (1991).
(§4) Binding assays were done using the methods described in by Seeman and Vantol. [^3 H]-spiperone (New England Nuclear, Boston, Mass.). The compositions were tested varying concentrations.
(§5) After addition of all components, the samples were incubated for 15 minutes at 37° C., terminated with 50 mM Tris-HCl (pH 7.4 at 20° C.) and collected on glass-fiber filters on a Brandel cell harvester. Radioactivity retained on the filters was counted on a Beckman LS 1701 scintillation counter and data were analyzed by non-linear least squares regression methods.

D4 receptor = molecular target: T5, D4 receptor (Homo sapiens, UniProt P21917, DEL265-296); test: D2:D4 comparative binding assay, D4 (COS-7 cells)
T5 construct: expressed in transfected cells; host or cells: COS-7 cells
T5 sequence (P21917 other isoform, or with tags, fused parts or gaps DEL265-296): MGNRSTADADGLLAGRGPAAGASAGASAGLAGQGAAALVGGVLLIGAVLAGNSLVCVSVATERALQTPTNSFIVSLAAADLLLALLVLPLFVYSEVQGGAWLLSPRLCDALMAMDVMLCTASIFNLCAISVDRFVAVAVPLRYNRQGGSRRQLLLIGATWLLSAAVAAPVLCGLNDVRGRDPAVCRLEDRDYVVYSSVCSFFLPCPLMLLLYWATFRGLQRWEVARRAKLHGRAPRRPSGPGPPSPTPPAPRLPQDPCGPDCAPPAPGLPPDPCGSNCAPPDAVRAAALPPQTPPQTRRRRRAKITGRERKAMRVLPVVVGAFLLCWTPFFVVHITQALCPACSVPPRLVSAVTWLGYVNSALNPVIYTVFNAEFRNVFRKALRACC
Procedure: as §2, §3, §4, §5

D2 receptor [5] = molecular target: T6, D2 receptor (Rattus norvegicus, UniProt P61169); test: D2 receptor agonist evaluation (membrane binding with and without Gpp(NH)p)
T6 construct: expressed in transfected cells
T6 sequence (P61169 whole entry): as the sequence (P61169 whole entry) above
Procedure: as §1
To determine whether or not compounds of this invention were D2 receptor agonists, a membrane binding assay, utilizing the D2 cell line described in Example 26, was performed in the presence and absence of the non-hydrolyzable guanine nucleotide (GTP analogue) Gpp(NH)p.

[6] = test system: alpha1-adrenergic receptor
Procedure: In these assays, the binding reaction was initiated by the addition of varying concentrations of the potential binding composition and a radioligand to an appropriate tissue. The assay was then incubated to allow binding. Binding was then terminated by dilution of the assay with a cold buffer, followed by rapid vacuum filtration onto Whatman GI/C filters that were presoaked in 0.1% polyethylene imine for at least 3 hours. Radioactivity trapped onto the filters was determined and compared to control values in order to ascertain any interactions of test compounds with the binding sites. Binding affinity analyses were performed by Novascreen, Division of the Adheron Corporation, Hanover, Md.
Incubation was conducted in 50 mM TRIS-HCl (pH 7.7) at 25° C. for 60 minutes. […] The final ligand concentration was 0.5 nm.

5HT1 serotonin receptor = test: Serotonin (5HT1) binding assay
Procedure: In these assays, the binding reaction was initiated by the addition of varying concentrations of the potential binding composition and a radioligand to an appropriate tissue. The assay was then incubated to allow binding. Binding was then terminated by dilution of the assay with a cold buffer, followed by rapid vacuum filtration onto Whatman GI/C filters that were presoaked in 0.1% polyethylene imine for at least 3 hours. Radioactivity trapped onto the filters was determined and compared to control values in order to ascertain any interactions of test compounds with the binding sites.
Incubation was conducted in 50 mM TRIS-HCl (pH 7.4) at 45 minutes for 37° C. The radioligand used was [^3 H]Hydroxytryptamine binoxalate (15-30 Ci/mmol). The final ligand concentration was 3.0 nM.

**Q.** For `Oc1ccc2c(c1O)CC[C@@H]1[C@@H]2CCCN1CCc1ccccc1` (relative stereo) [trans-9, trans-7,8-dihydroxy-4-phenethyl-1,2,3,4,4a,-5,6,10b-octahydrobenzo[f]quinoline], which Ki (D1 dopamine receptor) is on record?
**A.** 3.6 µM

**Q.** What about the Ki (D2 dopamine receptor) of the same molecule?
**A.** 0.0022 µM

**Q.** And the “dopamine receptor binding affinity” value (D2 dopamine receptor; in words)?
**A.** good dopamine receptor binding affinities

**Q.** And the “selectivity for the D2 over the D1 dopamine receptor” value (D2 dopamine receptor; in words)?
**A.** highly selective for the D2 dopamine receptor over the D1 dopamine receptor

**Q.** What about the Ki ([1]; Table III, rat cortical membranes, read-out: α2 receptor binding affinity Ki) of the same molecule?
**A.** 0.022 µM

**Q.** And the “α2 receptor binding affinity” value ([1]; in words)?
**A.** high binding affinities for the α2 receptor

**Q.** And the “decrease in locomotor activity, overall assessment” value ([2]; IP, in words)?
**A.** strong agonist in inducing a decrease in locomotor activity in mice

**Q.** What about the “suppression of locomotor activity” value ([2]; IP, in words) of the same molecule?
**A.** marked suppression of locomotor activity when initially tested at 10 mg/kg; also recorded: Marked suppression was still evident at 0.1 mg/kg

**Q.** And the ED50 ([2]; Mus musculus, read-out: ED50 (dose which produced 50% maximal depressant activity), IP, horizontal locomotor activity)?
**A.** 0.038 mg/kg

**Q.** And the stereotypy score ([3]; 0.0001 mg/kg)?
**A.** 6.5 ± 0.4

**Q.** And the stereotypy score ([3]; 0.001 mg/kg)?
**A.** 10.0 ± 0.9

**Q.** What about the stereotypy score ([3]; 0.003 mg/kg) of the same molecule?
**A.** 8.2 ± 0.8

**Q.** And the stereotypy score ([3]; 0.01 mg/kg)?
**A.** 7.2 ± 0.6

**Q.** What about the stereotypy score ([3]; 0.03 mg/kg) of the same molecule?
**A.** 6.5 ± 0.5

**Q.** What about the stereotypy score ([3]; 0.1 mg/kg) of the same molecule?
**A.** 6.0 ± 0.7

**Q.** And the stereotypy score ([3]; 0.3 mg/kg)?
**A.** 1.7 ± 0.5

**Q.** What about the stereotypy score ([3]; 1.0 mg/kg) of the same molecule?
**A.** 0.3 ± 0.2

**Q.** And the stereotypy score ([3]; 3.0 mg/kg)?
**A.** 0.2 ± 0.2

**Q.** What about the stereotypy score ([3]; 10.0 mg/kg) of the same molecule?
**A.** 0.0

**Q.** And the “induction of stereotypy, dopamine agonism” value ([3]; in words)?
**A.** appears to be a strong agonist as it induced stereotypy in rats

**Q.** And the “selectivity for the D3 receptor” value (D3 (human) receptor)?
**A.** highly selective for the D3 receptor over the D2 or D4 receptors

**Q.** And the Ki (D2 receptor [4])?
**A.** 0.0069 µM

**Q.** What about the Ki (D4 receptor) of the same molecule?
**A.** 0.0024 µM

**Q.** And the “Ratio of +:- Gpp(NH)p” value (D2 receptor [5]; Table XV)?
**A.** 8.82

**Q.** What about the Ki (D2 receptor [5]; Table XV, with Gpp(NH)p, read-out: D2 receptor binding Ki with Gpp(NH)p) of the same molecule?
**A.** 0.924 ± 1.84 µM

**Q.** What about the Ki (D2 receptor [5]; Table XV, without Gpp(NH)p, read-out: D2 receptor binding Ki without Gpp(NH)p) of the same molecule?
**A.** 0.105 ± 0.029 µM

**Q.** What about the D2 agonist/antagonist assessment (D2 receptor [5]; in words) of the same molecule?
**A.** appear to be agonists

**Q.** What about the “effect of GTP on D2 receptor binding” value (D2 receptor [5]; in words) of the same molecule?
**A.** D2 receptor binding was enhanced by the addition of GTP

**Q.** What about the “α1 receptor binding affinity” value ([6]; in words) of the same molecule?
**A.** high binding affinities for the α1 receptor

**Q.** What about the Ki ([6]; read-out: α1 receptor binding affinity Ki, Table III, rat forebrain membranes) of the same molecule?
**A.** 0.08 µM

**Q.** And the “5HT1 serotonin receptor binding affinity” value (5HT1 serotonin receptor; in words)?
**A.** high binding affinity for the 5HT1 serotonin receptor

**Q.** And the Ki (5HT1 serotonin receptor; read-out: 5-HT1 receptor binding affinity Ki, Table III, rat cortical membranes)?
**A.** 0.15 µM
